How the values were obtained:
Homo sapiens = organism: Homo sapiens; experiment: Protac activity at E3 Ubiquitin-protein ligase/Focal adhesion kinase in human PC3 cells assessed as induction of FAK protein degradation by immunoblotting analysis relative to control; type: cell-based
cells = details: Homo sapiens, PC-3

Row | Structure (SMILES) | Emax (Homo sapiens) | DC50 (cells)
1 | CN(c1cccc(CNc2nc(Nc3ccc(OCCOCCOCCOCCOCCC(=O)NCCOc4cccc5c4C(=O)N(C4CCC(=O)NC4=O)C5=O)cc3)ncc2C(F)(F)F)c1)S(C)(=O)=O (stereo unspecified) | 87% | 
2 | Cc1ncsc1-c1ccc(CNC(=O)[C@@H]2C[C@@H](O)CN2C(=O)[C@@H](NC(=O)COCCCOc2ccc(Nc3ncc(C(F)(F)F)c(NCc4cccc(N(C)S(C)(=O)=O)c4)n3)cc2)C(C)(C)C)cc1 | 99% | 
3 | Cc1ncsc1-c1ccc(CNC(=O)[C@@H]2C[C@@H](O)CN2C(=O)[C@@H](NC(=O)CCOCCOc2ccc(Nc3ncc(C(F)(F)F)c(NCc4cccc(N(C)S(C)(=O)=O)c4)n3)cc2)C(C)(C)C)cc1 | 99% | 0.0033 µM
4 | CN(c1cccc(CNc2nc(Nc3ccc(OCCOCCOCCC(=O)NCCOc4cccc5c4C(=O)N(C4CCC(=O)NC4=O)C5=O)cc3)ncc2C(F)(F)F)c1)S(C)(=O)=O (stereo unspecified) | 99% | 0.0267 µM
5 | Cc1ncsc1-c1ccc(CNC(=O)[C@@H]2C[C@@H](O)CN2C(=O)[C@@H](NC(=O)CCOCCOCCOc2ccc(Nc3ncc(C(F)(F)F)c(NCc4cccc(N(C)S(C)(=O)=O)c4)n3)cc2)C(C)(C)C)cc1 | 99% | 
6 | CN(c1cccc(CNc2nc(Nc3ccc(OCCCOCCC(=O)NCCOc4cccc5c4C(=O)N(C4CCC(=O)NC4=O)C5=O)cc3)ncc2C(F)(F)F)c1)S(C)(=O)=O (stereo unspecified) | 99% | 
7 | Cc1ncsc1-c1ccc(CNC(=O)[C@@H]2C[C@@H](O)CN2C(=O)[C@@H](NC(=O)CCOCCCOc2ccc(Nc3ncc(C(F)(F)F)c(NCc4cccc(N(C)S(C)(=O)=O)c4)n3)cc2)C(C)(C)C)cc1 | 99% | 
8 | CNC(=O)c1ccc(Nc2ncc(C(F)(F)F)c(NCc3nccnc3N(C)S(C)(=O)=O)n2)cc1 | 0% | 
9 | Cc1ncsc1-c1ccc(CNC(=O)[C@@H]2C[C@@H](O)CN2C(=O)[C@@H](NC(=O)COCCOc2ccc(Nc3ncc(C(F)(F)F)c(NCc4cccc(N(C)S(C)(=O)=O)c4)n3)cc2)C(C)(C)C)cc1 | 99% | 
